In ChEMBL document CHEMBL1201862, “PubChem BioAssay data set” (2004):
The source made the active and inactive calls.

How the values were obtained:
[1] = molecular target: Scavenger receptor class B member 1 (Mus musculus, UniProt Q61009); test: mouse SR-BI DiI-HDL uptake blockers – ldlA[mSR-BI] cells, fluorescence, cherry pick, dose response (AID 493194); format: functional, cell-based;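 note: cellular uptake of fluorescent DiI-labeled HDL measured as cell fluorescence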
[2] = molecular target: T1, Neuropeptide Y receptor type 2 (Homo sapiens, UniProt P49146); test: Fluorescence-based counterscreen for agonists of NPY-Y1: cell-based high-throughput dose response assay for agonists of NPY-Y2.; format: functional
T1 sequence (P49146 whole entry): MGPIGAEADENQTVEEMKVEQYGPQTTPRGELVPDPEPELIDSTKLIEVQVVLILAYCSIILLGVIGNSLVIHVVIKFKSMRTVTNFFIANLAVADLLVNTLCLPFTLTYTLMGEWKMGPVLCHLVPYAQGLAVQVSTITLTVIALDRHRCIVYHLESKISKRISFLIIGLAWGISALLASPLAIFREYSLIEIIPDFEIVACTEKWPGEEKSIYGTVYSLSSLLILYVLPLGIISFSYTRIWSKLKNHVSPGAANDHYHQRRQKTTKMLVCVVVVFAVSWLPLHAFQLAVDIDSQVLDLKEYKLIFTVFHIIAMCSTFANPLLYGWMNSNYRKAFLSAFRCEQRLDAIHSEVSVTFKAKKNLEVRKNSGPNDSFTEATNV

HEK293 = test: Fluorescence-based counterscreen for potentiators or agonists of NPY-Y1: cell-based high-throughput dose response assay for inhibitors of cyclic nucleotide gated ion channel (CNGC) activity. In this assay, the parental HEK293 cell line transfected with a cyclic-nucleotide gated ion channel (CNGC)-based cAMP sensor is used to measure inhibition of isoproterenol-induced CNGC …; format: functional; details: Homo sapiens
[3] = molecular target: T2, Neuropeptide Y receptor type 1 (Homo sapiens, UniProt P25929); test: Fluorescence-based dose response cell-based high-throughput screening assay for agonists of NPY-Y1. [Related pubchem assays: 1697 (Screening assay (NPY-Y1 agonists).), 1359 (Screening assay (NPY-Y2 potentiators or agonists).), 1304 (Screening assay (NPY-Y1 potentiators or agonists).), 1704 (Screening assay (CNGC inhibitors).), 1791 (Summary AID.)]; format: functional
T2 sequence (P25929 whole entry): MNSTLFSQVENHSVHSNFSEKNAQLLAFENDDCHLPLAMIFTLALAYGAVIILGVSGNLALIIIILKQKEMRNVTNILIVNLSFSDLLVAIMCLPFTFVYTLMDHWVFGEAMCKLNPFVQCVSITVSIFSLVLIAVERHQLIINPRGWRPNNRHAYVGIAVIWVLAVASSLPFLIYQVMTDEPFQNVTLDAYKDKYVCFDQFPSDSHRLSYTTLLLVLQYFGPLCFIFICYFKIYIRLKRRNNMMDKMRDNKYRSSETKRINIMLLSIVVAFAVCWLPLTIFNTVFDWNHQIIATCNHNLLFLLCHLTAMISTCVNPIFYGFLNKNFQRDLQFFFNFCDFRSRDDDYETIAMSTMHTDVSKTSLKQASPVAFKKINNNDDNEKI

[4] = molecular target: Serine/threonine-protein phosphatase PP1-alpha catalytic subunit (Homo sapiens, UniProt P62136); test: inhibition of protein phosphatase 1 activity – biochemical, fluorescence, dose response (AID 2403);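 note: phosphatase turnover of OMFP into fluorescent 3-O-methylfluorescein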
[5] = microbe, parasite or virus in culture; format: functional; details: Mycobacterium tuberculosis
[6] = molecular target: Serine/threonine-protein phosphatase (Homo sapiens, UniProt Q9BPW0); test: Counterscreen for inhibitors of PP1: fluorescence-based biochemical high throughput dose response assay to identify inhibitors of Protein Phosphatase 5 (PP5). [Related pubchem assays: 2034 (Summary (PP5 inhibitors)), 1987 (PP5 inhibitors in singlate), 2235 (PP1 inhibitors in singlate)]
[7] = molecular target: Heat shock protein HSP 90-alpha (Homo sapiens, UniProt P07900); format: functional, organism-based
INS1 = test: INS-1E survival protection against cytokine death – cell-based, luminescence, retest, dose response (AID 449756); format: functional; details: Rattus norvegicus;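 note: cell death triggered by IL-1 beta plus TNF-alpha plus IFN-gamma mixture; protective hits raise ATP signal compared with cytokine alone wells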
Vero = test: cells; format: functional; details: Chlorocebus sabaeus
Melanocortin receptor 4 = Melanocortin receptor 4 (Homo sapiens, UniProt P32245); test: inhibitors of MC4R cAMP signaling – cell-based, TR-FRET, biased antagonists, dose response (AID 602298); format: functional;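 note: antagonist potency against agonist-stimulated cAMP production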
[8] = cAMP pathway inhibition in counterscreen cell line – TR-FRET cAMP detection, counter-screen for MC4R biased antagonist project, dose response (AID 602305); format: functional, cell-based;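 note: U2OS cells stimulated with forskolin near its EC80 as the cAMP inducer; potency is for inhibition of forskolin-stimulated cAMP signaling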
Protein skinhead-1 = molecular target: T3, Protein skinhead-1 (Caenorhabditis elegans, UniProt P34707); format: functional
T3 sequence (P34707 whole entry): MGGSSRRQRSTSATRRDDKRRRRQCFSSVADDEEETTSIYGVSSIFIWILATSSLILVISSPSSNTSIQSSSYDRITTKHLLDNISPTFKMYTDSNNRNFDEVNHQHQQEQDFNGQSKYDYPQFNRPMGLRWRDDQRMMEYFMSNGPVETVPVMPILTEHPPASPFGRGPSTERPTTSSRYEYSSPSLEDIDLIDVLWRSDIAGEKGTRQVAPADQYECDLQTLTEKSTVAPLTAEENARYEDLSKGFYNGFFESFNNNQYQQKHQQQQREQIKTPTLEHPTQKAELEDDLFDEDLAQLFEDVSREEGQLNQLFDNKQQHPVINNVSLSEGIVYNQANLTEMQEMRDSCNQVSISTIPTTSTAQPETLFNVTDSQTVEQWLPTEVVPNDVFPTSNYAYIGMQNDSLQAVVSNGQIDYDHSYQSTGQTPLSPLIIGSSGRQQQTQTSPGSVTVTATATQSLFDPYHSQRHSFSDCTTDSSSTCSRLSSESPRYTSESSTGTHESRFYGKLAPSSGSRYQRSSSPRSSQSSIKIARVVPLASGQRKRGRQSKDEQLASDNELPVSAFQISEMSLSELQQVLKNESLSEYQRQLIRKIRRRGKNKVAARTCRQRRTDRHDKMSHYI

[9] = luciferase reporter signal suppression in cells – H4 neuroglioma cells, luminescence, dose response (AID 1990); format: functional, cell-based
[10] = luciferase reporter signal reduction – luminescence, H4-C neuroglioblastoma cells, dose response (AID 2458); format: functional, cell-based;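 note: H4 neuroglioblastoma cells stably carrying a luciferase reporter gene fusion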
cells = format: functional, cell-based
[11] = Luminescence Cell-Based Dose Response HTS to Identify Inhibitors of 5'UTR Stem-Loop Driven Prion Protein mRNA Translation in H4 Neuroglioblastoma Cells. [Related pubchem assays: 1827 (Project Summary), 1813 (Primary HTS)]; format: functional
[12] = alpha-synuclein stem-loop luciferase translation blockers – H4 neuroglioma cells, luminescence, confirmation (AID 1988); format: functional, cell-based
[13] = alpha-synuclein stem-loop translation blockers – luminescence, H4 neuroglioblastoma cells, dose confirmation, confirmation (AID 2454); format: functional, cell-based;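 note: H4 neuroglioblastoma cells carrying an alpha-synuclein 5'UTR luciferase reporter; potency for inhibition of the luciferase signal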
Jurkat = test: blockers of NF-kB activation in T cells – Jurkat, luciferase reporter, luminescence, B- and T-cell, dose response (AID 489004); format: functional, cell-based; details: Homo sapiens;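 note: NF-kB luciferase reporter Jurkat cells stimulated with PMA plus ionomycin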
[14] = HEK-293T viability loss, compound-treated – cell-based, uHTS hits, cytotoxicity control for B/T-cell NF-kB inhibitor project, dose response (AID 489019); format: functional;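 note: IC50 reflects cytotoxicity as loss of cell viability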
[15] = molecular target: Metabotropic glutamate receptor 4 (Rattus norvegicus, UniProt P31423); test: Modulation of the Metabotropic Glutamate Receptor mGluR4: Rat PAM Potency. [Related pubchem assays (depositor defined):AID2437, AID2807]; format: functional
Chain of Metabotropic glutamate receptor 4 (P31423 whole entry): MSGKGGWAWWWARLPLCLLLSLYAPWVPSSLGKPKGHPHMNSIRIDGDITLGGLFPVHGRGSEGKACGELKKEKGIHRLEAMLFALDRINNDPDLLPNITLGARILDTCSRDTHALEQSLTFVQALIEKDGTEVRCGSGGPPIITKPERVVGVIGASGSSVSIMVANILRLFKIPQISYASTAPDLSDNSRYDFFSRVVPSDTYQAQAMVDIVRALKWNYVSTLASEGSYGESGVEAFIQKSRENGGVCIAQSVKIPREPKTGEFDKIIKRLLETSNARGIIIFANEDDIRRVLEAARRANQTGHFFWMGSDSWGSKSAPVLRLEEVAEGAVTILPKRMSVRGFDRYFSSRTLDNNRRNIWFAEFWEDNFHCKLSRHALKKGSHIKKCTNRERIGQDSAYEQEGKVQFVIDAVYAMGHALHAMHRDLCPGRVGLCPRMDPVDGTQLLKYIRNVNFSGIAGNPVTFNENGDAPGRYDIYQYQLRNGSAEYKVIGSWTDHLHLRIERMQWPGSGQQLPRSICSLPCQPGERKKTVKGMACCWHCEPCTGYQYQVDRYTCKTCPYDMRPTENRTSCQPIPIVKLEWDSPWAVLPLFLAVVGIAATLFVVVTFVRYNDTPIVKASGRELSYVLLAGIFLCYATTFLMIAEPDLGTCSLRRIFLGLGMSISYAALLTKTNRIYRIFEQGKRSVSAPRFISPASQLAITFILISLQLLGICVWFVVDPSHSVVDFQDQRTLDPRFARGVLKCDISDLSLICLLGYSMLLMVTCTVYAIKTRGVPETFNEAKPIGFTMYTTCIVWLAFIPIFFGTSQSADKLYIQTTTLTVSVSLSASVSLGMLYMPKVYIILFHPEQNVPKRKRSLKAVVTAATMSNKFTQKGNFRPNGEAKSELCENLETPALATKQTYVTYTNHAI

Chain of Melanocortin receptor 4 (P32245 whole entry): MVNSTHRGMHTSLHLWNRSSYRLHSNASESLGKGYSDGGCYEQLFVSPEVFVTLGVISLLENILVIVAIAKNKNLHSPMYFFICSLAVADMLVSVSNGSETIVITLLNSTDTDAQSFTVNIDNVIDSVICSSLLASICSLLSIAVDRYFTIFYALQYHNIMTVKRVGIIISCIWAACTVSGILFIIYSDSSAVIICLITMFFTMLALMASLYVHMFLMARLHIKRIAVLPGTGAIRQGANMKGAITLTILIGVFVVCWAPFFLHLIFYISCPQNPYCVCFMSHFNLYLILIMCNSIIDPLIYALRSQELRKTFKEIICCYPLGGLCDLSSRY
Chain of Serine/threonine-protein phosphatase (Q9BPW0 whole entry): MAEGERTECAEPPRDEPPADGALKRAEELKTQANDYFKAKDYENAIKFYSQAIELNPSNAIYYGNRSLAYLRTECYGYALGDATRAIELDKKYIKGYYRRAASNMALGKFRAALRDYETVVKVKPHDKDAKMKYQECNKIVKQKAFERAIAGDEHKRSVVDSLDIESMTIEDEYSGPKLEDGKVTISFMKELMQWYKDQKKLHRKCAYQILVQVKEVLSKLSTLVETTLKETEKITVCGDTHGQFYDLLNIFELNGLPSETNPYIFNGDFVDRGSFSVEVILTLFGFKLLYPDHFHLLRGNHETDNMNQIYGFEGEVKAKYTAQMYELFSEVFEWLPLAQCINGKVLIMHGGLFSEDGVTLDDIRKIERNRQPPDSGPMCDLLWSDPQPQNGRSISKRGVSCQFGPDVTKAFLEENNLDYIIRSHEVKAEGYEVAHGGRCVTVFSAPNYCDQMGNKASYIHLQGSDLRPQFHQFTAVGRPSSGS
Chain of Scavenger receptor class B member 1 (Q61009 whole entry): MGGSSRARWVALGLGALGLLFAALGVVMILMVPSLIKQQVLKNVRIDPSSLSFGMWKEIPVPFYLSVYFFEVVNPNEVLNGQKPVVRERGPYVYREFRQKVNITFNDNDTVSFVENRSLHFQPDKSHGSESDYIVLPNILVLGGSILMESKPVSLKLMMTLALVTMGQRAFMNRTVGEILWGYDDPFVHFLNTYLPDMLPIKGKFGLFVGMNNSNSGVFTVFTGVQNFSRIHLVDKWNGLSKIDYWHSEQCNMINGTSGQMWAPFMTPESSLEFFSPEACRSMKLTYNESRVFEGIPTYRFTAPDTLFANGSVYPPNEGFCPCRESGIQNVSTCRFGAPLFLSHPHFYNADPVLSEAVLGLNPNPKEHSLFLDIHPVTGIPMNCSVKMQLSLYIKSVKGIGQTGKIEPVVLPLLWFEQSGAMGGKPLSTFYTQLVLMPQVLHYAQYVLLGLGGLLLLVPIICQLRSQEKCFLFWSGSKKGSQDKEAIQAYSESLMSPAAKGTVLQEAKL
Chain of Serine/threonine-protein phosphatase PP1-alpha catalytic subunit (P62136 whole entry): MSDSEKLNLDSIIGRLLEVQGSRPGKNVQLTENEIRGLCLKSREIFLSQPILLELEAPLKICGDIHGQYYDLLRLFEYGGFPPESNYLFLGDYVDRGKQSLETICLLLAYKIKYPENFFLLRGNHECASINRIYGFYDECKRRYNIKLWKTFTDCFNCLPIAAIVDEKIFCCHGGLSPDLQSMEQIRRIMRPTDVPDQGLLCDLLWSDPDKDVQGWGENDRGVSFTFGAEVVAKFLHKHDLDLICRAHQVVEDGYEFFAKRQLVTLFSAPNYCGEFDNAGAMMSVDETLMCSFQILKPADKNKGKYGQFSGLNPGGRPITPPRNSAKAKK

Compound: COc1cc(OC)cc(C(=O)Nc2cccc(NC(=O)c3cc(OC)cc(OC)c3)n2)c1
- AC50 [1]: 45.9 µM (active)

Compound: OC(CNC1Cc2ccccc2C1)COc1ccc(Cl)cc1 (configuration not stated)
- EC50 [2]: > 35.4 µM (not active)
- IC50 (HEK293): > 3.94 µM (active)
- EC50 [3]: 11.6 µM (not active)

Compound: CC1=NOC(=O)/C1=C/c1ccc(-c2ccc(Cl)cc2)o1
- IC50 [4]: 6.86 µM (active)
- CC50 [5]: > 40 µM (active)
- IC50 [6]: > 67 µM (not active)
- AC50 [7]: 2.08 µM (active)
- AC50 (INS1): 6.76 µM (active)
- CC50 (Vero): > 25 µM (active)
- IC50 (Melanocortin receptor 4): 8.05 µM (active)
- IC50 [8]: 13.4 µM (inactive)
- IC50 (Protein skinhead-1): 62.2 µM (inactive)

Compound: CC1CCc2c(sc(NC(=O)CSc3nc[nH]n3)c2C#N)C1 (configuration not stated)
- EC50 [9]: < 0.1 µM (active)
- EC50 [10]: 0.232 µM (active)
- EC50 (cells): 0.337 µM (active)
- EC50 [11]: < 0.1 µM (active)
- EC50 [12]: < 0.1 µM (active)
- EC50 [13]: 0.323 µM (active)
- IC50 (Jurkat): 0.52 µM (active)
- IC50 [14]: > 80 µM (inactive)

Compound: O=C(Nc1ccc(NC(=O)c2ccccc2Cl)c(Cl)c1)c1ccccn1
- EC50 [15]: 0.75 µM (active)
